The record followed here is patent US20250320213A1, “Nitrogen-Containing Heterocyclic Compounds” (Pfizer Inc., priority 2024, published 2025).

The target of one experiment is T1, STAT6 (Homo sapiens, UniProt P42226).
T1 construct: stably transfected HaCaT keratinocyte cell line, which expresses NanoLuc luciferase reporter gene under the transcriptional control of the STAT6 responsive promoter; endogenous in cells; host or cells: HaCaT keratinocyte reporter cell line (stably transfected with a NanoLuc reporter)
T1 sequence (P42226 1-847): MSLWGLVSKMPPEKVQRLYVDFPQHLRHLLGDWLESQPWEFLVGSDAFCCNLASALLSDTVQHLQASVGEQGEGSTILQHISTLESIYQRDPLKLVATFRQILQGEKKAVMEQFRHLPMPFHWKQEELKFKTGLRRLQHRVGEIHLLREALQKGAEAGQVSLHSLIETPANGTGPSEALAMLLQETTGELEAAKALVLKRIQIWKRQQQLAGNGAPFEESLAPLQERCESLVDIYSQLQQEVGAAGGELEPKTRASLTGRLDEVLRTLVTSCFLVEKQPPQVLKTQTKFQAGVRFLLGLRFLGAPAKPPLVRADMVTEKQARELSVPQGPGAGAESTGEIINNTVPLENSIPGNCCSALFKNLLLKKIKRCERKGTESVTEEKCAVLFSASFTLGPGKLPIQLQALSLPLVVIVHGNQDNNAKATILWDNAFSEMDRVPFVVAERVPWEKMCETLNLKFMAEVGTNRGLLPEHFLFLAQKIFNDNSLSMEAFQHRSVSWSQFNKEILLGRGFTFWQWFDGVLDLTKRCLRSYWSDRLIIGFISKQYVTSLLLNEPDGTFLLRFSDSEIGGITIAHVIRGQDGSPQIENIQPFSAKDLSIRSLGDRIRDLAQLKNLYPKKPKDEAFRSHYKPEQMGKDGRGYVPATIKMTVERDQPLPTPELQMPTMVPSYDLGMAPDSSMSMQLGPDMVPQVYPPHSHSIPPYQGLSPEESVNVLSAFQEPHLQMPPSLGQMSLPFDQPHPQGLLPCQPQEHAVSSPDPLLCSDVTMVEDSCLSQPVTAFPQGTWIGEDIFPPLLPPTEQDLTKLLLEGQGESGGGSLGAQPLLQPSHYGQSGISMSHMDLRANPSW
Briefly: STAT6 Reporter Luciferase Assay (IL-13 stimulated HaCaT keratinocyte NanoLuc reporter cells). The note with it: IL-13 stimulated HaCaT STAT6 NanoLuc reporter cells; read-out: Reporter EC50. The format is cell-based. The essentials: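 Cells were plated overnight, washed, exposed to compound for two hours, stimulated with IL-13 (0.12 nM final) for four hours at 37 °C, and then lysed with Nano-Glo substrate for 15 min before luminescence reading.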
With `CCN1CCN(C(=O)Nc2ccc(CNC(=O)c3nn(C(C)C)c4c3CN(c3ccc(C(=O)N(C)C)cc3)C[C@@H]4C)cc2)CC1` [Example 745, (S)-5-(4-(dimethylcarbamoyl)phenyl)-N-(4-(4-ethylpiperazine-1-carboxamido)benzyl)-1-isopropyl-7-methyl-4,5,6,7-tetrahydro-1H-pyrazolo[4,3-c]pyridine-3-carboxamide], the concentration giving a half-maximal response (EC50) came to 1 nM.
The same measure, in the same setting: for `CCC(=O)N1CCN(C(=O)c2ccc(N3CCc4c(c(C(=O)NCc5ccc(NC(=O)N(C)C)cc5)nn4C(C)C)C3)nc2)CC1` [Example 196, N-(4-(3,3-dimethylureido)benzyl)-1-isopropyl-5-(5-(4-propionylpiperazine-1-carbonyl)pyridin-2-yl)-4,5,6,7-tetrahydro-1H-pyrazolo[4,3-c]pyridine-3-carboxamide] the value was 90 nM.
On to `CC(C)n1nc(C(=O)NCc2ccc(NC(=O)N(C)C)cc2)c2c1CCN(c1ccc(C(=O)N3CC(=O)NCC3(C)C)cn1)C2` [Example 328, 5-(5-(2,2-dimethyl-5-oxopiperazine-1-carbonyl)pyridin-2-yl)-N-(4-(3,3-dimethylureido)benzyl)-1-isopropyl-4,5,6,7-tetrahydro-1H-pyrazolo[4,3-c]pyridine-3-carboxamide], for which the EC50 amounted to 266 nM.
On to `COC[C@H]1CN(C(=O)Nc2ccc(CNC(=O)c3nn(C(C)C)c4c3CN(c3ccc(C(=O)N(C)C)cn3)C[C@@H]4C)cc2F)CCN1` [Example 688, (S)-5-(5-(dimethylcarbamoyl)pyridin-2-yl)-N-(3-fluoro-4-((R)-3-(methoxymethyl)piperazine-1-carboxamido)benzyl)-1-isopropyl-7-methyl-4,5,6,7-tetrahydro-1H-pyrazolo[4,3-c]pyridine-3-carboxamide], for which the EC50 amounted to 1 nM.
Same read-out and setting: for `CC(C)n1nc(C(=O)NCc2ccc(NC(=O)N3CCC4(CCN(C)CC4)CC3)c(F)c2)c2c1[C@@H](C)CN(c1ccc(C(=O)N(C)C)cc1)C2` [Example 660, (S)-N-(4-((5-(4-(dimethylcarbamoyl)phenyl)-1-isopropyl-7-methyl-4,5,6,7-tetrahydro-1H-pyrazolo[4,3-c]pyridine-3-carboxamido)methyl)-2-fluorophenyl)-9-methyl-3,9-diazaspiro[5.5]undecane-3-carboxamide] the value was 4 nM; for `CC(C)n1nc(C(=O)NCc2ccc(NC(=O)N(C)C)cc2)c2c1CCN(c1ccc(C(=O)N3CCn4ccnc4C3)cn1)C2` [Example 372, N-(4-(3,3-dimethylureido)benzyl)-1-isopropyl-5-(5-(5,6,7,8-tetrahydroimidazo[1,2-a]pyrazine-7-carbonyl)pyridin-2-yl)-4,5,6,7-tetrahydro-1H-pyrazolo[4,3-c]pyridine-3-carboxamide], 59 nM; for `CC(C)n1nc(C(=O)NCc2ccc(NC(=O)N(C)C)cc2)c2c1CCN(c1ccc(C(=O)N3Cc4cnc(C5CC5)nc4C3)cn1)C2` [Example 370, 5-(5-(2-cyclopropyl-6,7-dihydro-5H-pyrrolo[3,4-d]pyrimidine-6-carbonyl)pyridin-2-yl)-N-(4-(3,3-dimethylureido)benzyl)-1-isopropyl-4,5,6,7-tetrahydro-1H-pyrazolo[4,3-c]pyridine-3-carboxamide], 11 nM.
For `CC(C)n1nc(C(=O)NCc2ccc(NC(=O)N(C)C)cc2)c2c1CCN(c1ccc(C(=O)N3CCc4ncccc4C3)cn1)C2` [Example 376, N-(4-(3,3-dimethylureido)benzyl)-1-isopropyl-5-(5-(5,6,7,8-tetrahydro-1,6-naphthyridine-6-carbonyl)pyridin-2-yl)-4,5,6,7-tetrahydro-1H-pyrazolo[4,3-c]pyridine-3-carboxamide], the concentration giving a half-maximal response (EC50) worked out at 10 nM.
On the same count and under the same terms, next, `CC(C)n1nc(C(=O)NCc2ccc(NC(=O)N(C)C)cc2)c2c1CCN(c1ccc(C(=O)N3CCn4cnnc4C3)cn1)C2` [Example 380, N-(4-(3,3-dimethylureido)benzyl)-1-isopropyl-5-(5-(5,6,7,8-tetrahydro-[1,2,4]triazolo[4,3-a]pyrazine-7-carbonyl)pyridin-2-yl)-4,5,6,7-tetrahydro-1H-pyrazolo[4,3-c]pyridine-3-carboxamide]: 538 nM; `CC(C)n1nc(C(=O)NCc2ccc(NC(=O)N3CCN(C)CC3)cc2)c2c1[C@@H](C)CN(c1ccc(-c3nccn3C3CC3)cn1)C2` [Example 653, (S)-5-(5-(1-cyclopropyl-1H-imidazol-2-yl)pyridin-2-yl)-1-isopropyl-7-methyl-N-(4-(4-methylpiperazine-1-carboxamido)benzyl)-4,5,6,7-tetrahydro-1H-pyrazolo[4,3-c]pyridine-3-carboxamide]: 3 nM; `CCn1nc2c(c1C(=O)NCc1ccc(NC(=O)N(C)C)cc1)CN(c1ccc(C(=O)N(C)C)cn1)[C@@H](C)[C@@H]2C` (stereo in doubt) [Example 316, rel-(6S,7S)-5-(5-(dimethylcarbamoyl)pyridin-2-yl)-N-(4-(3,3-dimethylureido)benzyl)-2-ethyl-6,7-dimethyl-4,5,6,7-tetrahydro-2H-pyrazolo[4,3-c]pyridine-3-carboxamide]: 3770 nM.
Still for that read-out and setting: for `Cc1nn(C)c2c1CN(C(=O)c1ccc(N3CCc4c(c(C(=O)NCc5ccc(NC(=O)N(C)C)cc5)nn4C(C)C)C3)nc1)CC2` [Example 369, 5-(5-(1,3-dimethyl-4,5,6,7-tetrahydro-1H-pyrazolo[4,3-c]pyridine-5-carbonyl)pyridin-2-yl)-N-(4-(3,3-dimethylureido)benzyl)-1-isopropyl-4,5,6,7-tetrahydro-1H-pyrazolo[4,3-c]pyridine-3-carboxamide] the value was 38 nM; for `Cc1ncc2n1CCN(C(=O)c1ccc(N3CCc4c(c(C(=O)NCc5ccc(NC(=O)N(C)C)cc5)nn4C(C)C)C3)nc1)C2` [Example 382, N-(4-(3,3-dimethylureido)benzyl)-1-isopropyl-5-(5-(3-methyl-5,6,7,8-tetrahydroimidazo[1,5-a]pyrazine-7-carbonyl)pyridin-2-yl)-4,5,6,7-tetrahydro-1H-pyrazolo[4,3-c]pyridine-3-carboxamide], 137 nM; for `CC(C)n1nc(C(=O)NCc2ccc(NC(=O)N(C)C)cc2)c2c1CCN(c1ccc(C(=O)N3Cc4ccnn4C(C)C3)cn1)C2` (stereo not shown) [Example 424, N-(4-(3,3-dimethylureido)benzyl)-1-isopropyl-5-(5-(7-methyl-4,5,6,7-tetrahydropyrazolo[1,5-a]pyrazine-5-carbonyl)pyridin-2-yl)-4,5,6,7-tetrahydro-1H-pyrazolo[4,3-c]pyridine-3-carboxamide], 46 nM.
Regarding `CC(C)n1nc(C(=O)NCc2ccc(NC(=O)N(C)C)cc2)c2c1CCN(c1ccc(C(=O)N3CC(O)C3)cn1)C2` [Example 215, N-(4-(3,3-dimethylureido)benzyl)-5-(5-(3-hydroxyazetidine-1-carbonyl)pyridin-2-yl)-1-isopropyl-4,5,6,7-tetrahydro-1H-pyrazolo[4,3-c]pyridine-3-carboxamide], the EC50 worked out at 276 nM.

The experiment is the same for the next values; noted with them: STAT6 NanoLuc luciferase reporter, IL-13 stimulated HaCaT keratinocyte cells; read-out: Reporter EC50.
For the molecule `CC(C)n1nc(C(=O)NCc2ccc(NC(=O)N3C[C@H]4CC[C@@H]3C4)cc2)c2c1CCN(c1ccc(C(=O)N(C)C)cn1)C2` (racemic) [Example 143, rac-N-(4-((1R,4S)-2-azabicyclo[2.2.1]heptane-2-carboxamido)benzyl)-5-(5-(dimethylcarbamoyl)pyridin-2-yl)-1-isopropyl-4,5,6,7-tetrahydro-1H-pyrazolo[4,3-c]pyridine-3-carboxamide], the EC50 is 11 nM.

In general, EC50 refers to the concentration giving half of the maximal effect.
